Values joined by “and” are separate entries in the source; they are usually repeats but may differ in a detail not shown here. Equal entries are not always repeated.
Columns and labels:
[1] = tested on: HepG2 (human liver carcinoma cell line); experiment: MTT anti-proliferative assay, HepG2; format: cell-based; conditions: HepG2, mean of at least three experiments, read-out: Cytotoxicity IC50 HepG-2
Method: (§1) Sorafenib was used as a reference drug.
(§2) Anti-proliferative activity activities were tested using MTT assay as described in Supplementary Materials. […]
(§3) S2.1. In vitro anti-proliferative activities
(§4) The in vitro antiproliferative activities of all the synthesized compounds against three human tumor cell lines namely, MCF-7 (human breast cancer cell line), HepG2 (human liver […]
(§5) in the literature, using MTT assay protocol. Sorafenib was used in this test as a positive control.
(§6) The anti-proliferative activity was assessed quantitatively as follows.
(§7) Human cancer cell lines were seeded in 96-well plates at a density of 3-8 × 10^3 cells/well.
(§8) Next, the cells were incubated for 12 h in a 5% CO2 incubator at 37 °C. Then, for each well, the growth medium was exchanged with 0.1 ml of fresh medium containing graded concentrations of the test compounds or equal DMSO. Then 10 μl MTT solution ([…]) was added to each well, and the cells were incubated for additional 4 h. The crystals of MTT-formazan were dissolved in 100 μl of DMSO; the absorbance of each well was measured at 490 nm using an automatic ELISA reader system (TECAN, CHE). The IC50 values were calculated using the nonlinear regression fitting models (Graph Pad, Prism Version 5). The data represented the mean of three independent experiments in triplicate and were expressed as means ± SD. The IC50 value was […]
(§9) defined as the concentration at which 50% of the cells could survive. […]

HCT-116 cells [2] = experiment: Annexin-V/propidium iodide apoptosis assay; format: cell-based, human; conditions: 78 µM, 72 h
Method: The tested cells were subjected to 78 µM from compound 5m with an incubation time of 72 h.
The apoptotic effect of the compound 5m was tested as described in Supplementary data. Quantitative Real-Time Reverse-Transcriptase PCR (qRT-PCR) technique Using qRT-PCR, the effect of compound 5m on the expression of cleaved caspase-3 and caspase-8 was determined (Supplementary Materials). […]
(§10) S2.3. Annexin V - FITC apoptosis assay.
(§11) To detect the apoptosis induced by compound 5m , HCT-116 cells were seeded and incubated overnight and then treated with compound 5m at concentrations of 78 µM for 72 h. DMSO was chosen as the negative control. After that, the cells were collected and washed with PBS two successive times with centrifugation. Apoptosis detection kit (BD Biosciences, San Jose, CA) was used in this test. According to the manufacturer's protocol the cells were stained by Annexin V-FITC and propidium iodide (PI) in the binding b uffer for 20min at room temperature in the dark. Using a flow cytometer, Annexin V-FITC and PI binding were analyzed. Flowjo software was used to analyze the frequencies in all quadrants.
(§12) S2.4. Apoptotic effect of compound 5m treatment. […]
(§13) cells treated with compound 5m. […]

caspase-3 = experiment: qRT-PCR caspase-3 level; format: cell-based, human; conditions: HCT-116 cells, 72 h, versus untreated cells
Method: (§14) Quantitative Real Time Reverse-Transcriptase PCR technique (determination of caspase-3
(§15) The total RNA was extracted from the control and treated cells by using RNeasy mini kit
(§16) (Qiagen, Germany) according the manufacturer's protocol. Then, the isolated RNAs were
(§17) quantitatively and qualitatively assessed using a NanoDrop®1000 spectrophotometer (Thermo
(§18) Scientific, Wilmington, DE, USA). The RNA aliquots were preserved at - 80 °C till the next
(§19) Reverse transcription and quantification of caspase-3 and caspase-8 mRNA
expressions using qRT-PCR:
(§20) iScriptTM One-Step RT-PCR Kit with SYBR® Green kit (BIORAD Laboratories, USA) was used
(§21) for reverse transcription of total RNA and quantification of the targeted mRNA expressions in
(§22) single reaction tube. In depth, the complementary DNA (cDNA) was performed efficiently from
(§23) the isolated RNA using iScriptTM MMLV (Moloney Murine Leukemia Virus) reverse
(§24) transcriptase. While, the relative expression levels of caspase -3 and caspase-8 mRNA were
(§25) determined using 2X SYBR® Green RT -PCR Reaction Mix, containing iTaq TM DNA polymerase
(§26) and SYBR® Green I dye, on the basis of the manufacturer’s guidelines. GAPDH was used as
(§27) housekeeping gene for data normalization. The reaction Mix consisted of 10 μL of 2X SYBR®
(§28) Green RT-PCR Reaction Mix, 1 μl of forward primer, 1 μl of reverse primer, 1 μl of iScript […]
(§29) were determined by using the 2- ΔΔct method.

HDAC1 = HDAC1 (Homo sapiens, UniProt Q13547); experiment: In vitro HDAC1 inhibitory assay; format: biochemical
HDAC1, sequence (Q13547 whole entry): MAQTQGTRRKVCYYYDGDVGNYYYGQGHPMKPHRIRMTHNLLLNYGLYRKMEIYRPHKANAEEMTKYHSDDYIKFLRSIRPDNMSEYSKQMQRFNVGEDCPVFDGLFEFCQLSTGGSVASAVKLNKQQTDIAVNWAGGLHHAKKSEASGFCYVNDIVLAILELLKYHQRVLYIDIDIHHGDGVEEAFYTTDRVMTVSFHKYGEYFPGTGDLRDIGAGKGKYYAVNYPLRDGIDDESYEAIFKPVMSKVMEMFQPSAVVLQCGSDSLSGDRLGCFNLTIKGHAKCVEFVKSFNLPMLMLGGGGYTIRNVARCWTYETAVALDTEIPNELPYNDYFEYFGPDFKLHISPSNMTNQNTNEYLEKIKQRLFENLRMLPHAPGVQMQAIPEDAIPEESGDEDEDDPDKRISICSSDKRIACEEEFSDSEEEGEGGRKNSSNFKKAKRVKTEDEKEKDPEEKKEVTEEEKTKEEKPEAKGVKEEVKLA

[3] = tested on: colorectal carcinoma (HCT-116); experiment: MTT anti-proliferative assay, HCT-116; format: cell-based; conditions: Homo sapiens, HCT-116, read-out: Cytotoxicity IC50 HCT-116
Method: as §1, §2, §3, §4, §5, §6, §7, §8, §9

HCT-116 cells [4] = experiment: Flow cytometry cell cycle analysis; format: cell-based, human; conditions: 78 µM, 72 h, share of cells in phase
Method: The effect of the most promising compound, 5m, against the cell cycle was tested in HCT116 cells.
Cell cycle analysis was performed for compound 5m as described in Supplementary Materials. […]
defined as the concentration at which 50% of the cells could survive. The results were expressed […]
S2.2. In-vitro DNA-Flow cytometric (cell cycle) analysis. […]
h. Then, the tested cells were collected by trypsinization and washed in PBS. Ice - cold absolute ethanol was used for fixation of the collected cells. The cells were stained with Cycle TESTTM PLUS DNA Reagent Kit (BD Biosciences, San Jose, CA) accord ing to the manufacturer's instructions. Cell -cycle distribution was evaluated using a flow cytometer.
as §10, §11, §12, §13

[5] = tested on: MCF-7 (human breast cancer cell line); experiment: MTT anti-proliferative assay, MCF-7; format: cell-based; conditions: MCF7, MCF-7, mean of at least three experiments, read-out: Cytotoxicity IC50 MCF-7
Method: as §1, §2, §3, §4, §5, §6, §7, §8, §9

caspase-8 = experiment: qRT-PCR caspase-8 level; format: cell-based, human; conditions: HCT-116 cells, 72 h, versus untreated cells
Method: as §14, §15, §16, §17, §18, §19
expressions using qRT-PCR:
as §20, §21, §22, §23, §24, §25, §26, §27, §28, §29

HDAC4 = HDAC4 (Homo sapiens, UniProt P56524); experiment: In vitro HDAC4 inhibitory assay; format: biochemical
HDAC4, sequence (P56524 whole entry): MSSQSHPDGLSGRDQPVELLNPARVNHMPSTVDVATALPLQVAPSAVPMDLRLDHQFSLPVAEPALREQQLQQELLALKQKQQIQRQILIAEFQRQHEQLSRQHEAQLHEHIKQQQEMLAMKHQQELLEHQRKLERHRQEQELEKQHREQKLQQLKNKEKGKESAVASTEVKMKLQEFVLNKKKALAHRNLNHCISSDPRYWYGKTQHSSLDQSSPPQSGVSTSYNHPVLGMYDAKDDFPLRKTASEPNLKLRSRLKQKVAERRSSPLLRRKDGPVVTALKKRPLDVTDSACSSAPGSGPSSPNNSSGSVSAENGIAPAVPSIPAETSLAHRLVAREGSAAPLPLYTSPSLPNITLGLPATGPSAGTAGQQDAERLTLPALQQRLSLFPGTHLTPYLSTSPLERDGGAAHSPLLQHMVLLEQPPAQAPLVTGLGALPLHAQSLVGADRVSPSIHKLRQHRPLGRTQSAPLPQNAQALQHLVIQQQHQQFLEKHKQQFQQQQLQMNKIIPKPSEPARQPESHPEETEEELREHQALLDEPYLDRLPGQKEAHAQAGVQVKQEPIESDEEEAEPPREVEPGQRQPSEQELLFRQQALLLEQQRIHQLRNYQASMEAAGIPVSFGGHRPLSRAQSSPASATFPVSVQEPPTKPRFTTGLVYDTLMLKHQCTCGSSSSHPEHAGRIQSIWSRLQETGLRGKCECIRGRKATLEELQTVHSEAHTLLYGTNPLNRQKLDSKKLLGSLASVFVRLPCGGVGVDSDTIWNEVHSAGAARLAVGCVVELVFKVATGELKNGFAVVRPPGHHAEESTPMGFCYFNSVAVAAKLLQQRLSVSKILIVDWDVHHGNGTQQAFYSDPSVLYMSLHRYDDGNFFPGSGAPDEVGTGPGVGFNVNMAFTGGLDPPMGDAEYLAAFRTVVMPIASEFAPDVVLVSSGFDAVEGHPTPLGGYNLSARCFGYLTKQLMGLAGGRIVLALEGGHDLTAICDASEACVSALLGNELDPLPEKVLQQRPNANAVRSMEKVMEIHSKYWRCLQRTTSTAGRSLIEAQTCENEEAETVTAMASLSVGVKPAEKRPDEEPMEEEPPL

in vitro = conditions: human

SMILES: CCCn1c(N)c(C(c2ccc(Cl)cc2)c2c(N)n(CCC)c(=O)[nH]c2=O)c(=O)[nH]c1=O [Compound 5m, 5,5′-((4-Chlorophenyl)methylene)bis(6-amino-1-propylpyrimidine-2,4(1H,3H)-dione)]
- melting point: 257 to 258 °C
- IC50 [1]: 3.3 ± 0.56 µM
- Apoptotic effect, times/fold compared to control cells (HCT-116 cells [2]; 37.59% versus 2.17% in control): ~17
- DNA Content (%) Early (early apoptosis) (HCT-116 cells [2]; Annexin-V/PI): 22.36%
- DNA Content (%) Late (late apoptosis) (HCT-116 cells [2]; Annexin-V/PI): 13.14%
- DNA Content (%) Total (apoptotic effect) (HCT-116 cells [2]; Annexin-V/PI): 37.59%
- Necrosis (HCT-116 cells [2]; Annexin-V/PI): 2.09
- RT-PCR (Fold Change) Caspase-3 (caspase-3): 5 Fold Change and 4.891 Fold Change
- IC50 (HDAC1): 0.108 µM
- IC50 [3]: 78 ± 2 µM
- %G0–G1 (HCT-116 cells [4]): 55.31%
- %G2/M (HCT-116 cells [4]): 9.81%
- %S (HCT-116 cells [4]): 34.88%
- IC50 [5]: 52 ± 3.5 µM
- RT-PCR (Fold Change) Caspase-8 (caspase-8): 2.5 Fold Change and 2.655 Fold Change
- IC50 (HDAC4): 6.14 µM
- IC50 (in vitro): 65.7 ± 1.7 µM

Reference: PMC10384246, “Discovery of New Uracil and Thiouracil Derivatives as Potential HDAC Inhibitors” (Pharmaceuticals, 2023)
